Data on 16 compounds can be found in ChEMBL document CHEMBL3244157, “Synthesis and antiinflammatory evaluation of substituted isophthalonitriles, trimesonitriles, benzonitriles, and terephthalonitriles” (J Med Chem, 1978).

The nature of series [1]: Toxicity in mouse assessed as overt effects. Type of series: organism-based. As to conditions: in vivo.
Series [2] has as its system Rattus norvegicus. Description: Antiinflammatory activity in Long Evans rat assessed as reduction of carrageenan-induced pedal edema at 50 mg/kg, po administered 1 hr prior to carrageenan challenge measured after 3 hrs relative to control. Type of series: functional. Also noted: scale not given: the % may be the effect or the level left. On the technique in general: The carrageenan paw model is a standard test of acute inflammation.

In series [3] the test system is Rattus norvegicus. Description: Antiinflammatory activity in Long Evans rat assessed as reduction of carrageenan-induced pedal edema at 40 mg/kg, po administered 1 hr prior to carrageenan challenge measured after 3 hrs relative to control. Type of series: functional. Also noted: scale not given: the % may be the effect or the level left.
Series [4] has as its system Rattus norvegicus. Description: Antiinflammatory activity in Long Evans rat assessed as reduction of carrageenan-induced pedal edema at 20 mg/kg, po administered 1 hr prior to carrageenan challenge measured after 3 hrs relative to control. Type of series: functional. Also noted: scale not given: the % may be the effect or the level left.
For series [5], the system named is Rattus norvegicus. Briefly: Antiinflammatory activity in Long Evans rat assessed as reduction of carrageenan-induced pedal edema at 15 mg/kg, po administered 1 hr prior to carrageenan challenge measured after 3 hrs relative to control. Type of series: functional. On the set-up: scale not given: the % may be the effect or the level left.
Series [6] relates to Rattus norvegicus. Description: Antiinflammatory activity in Long Evans rat assessed as reduction of carrageenan-induced pedal edema at 100 mg/kg, po administered 1 hr prior to carrageenan challenge measured after 3 hrs relative to control. Also noted: scale not given: the % may be the effect or the level left. Type of series: functional.
For series [7], the system named is Rattus norvegicus. Description: Antiinflammatory activity in Long Evans rat assessed as reduction of carrageenan-induced pedal edema at 25 mg/kg, po administered 1 hr prior to carrageenan challenge measured after 3 hrs relative to control. Also noted: scale not given: the % may be the effect or the level left. Type of series: functional.

SMILES strings stand for the structures.

In the case of `N#Cc1cc(C#N)c(F)cc1F`, the LD50 (in general, the dose expected to kill half of the subjects tested) in series [1] is 56 mg/kg. For the same compound, the Activity with Rattus norvegicus [2] was 59%.

In the case of `CC(C)CCC(=O)Oc1c(Cl)c(Cl)c(C#N)c(Cl)c1C#N`, in series [1], the median lethal dose (LD50) amounted to 56 mg/kg. Also, the Activity with Rattus norvegicus [2] is 0%.

With `CNc1c(F)c(C#N)c(F)c(F)c1C#N`, the LD50 in series [1] came out at 56 mg/kg. Moreover, the Activity in the series on Rattus norvegicus [3] is 17%.

`N#Cc1c(Cl)c(C#N)c(Cl)c(C#N)c1Cl`: in series [1], the LD50 was determined as 24 mg/kg. Further, in the series with Rattus norvegicus [4], the Activity stood at 0%.

As for `N#Cc1c(Cl)c(C#N)c(Nc2ccc(F)cc2F)c(C#N)c1Cl`, in series [1], the LD50 came to 56 mg/kg. In the series with Rattus norvegicus [3], the Activity was 12%.

`N#Cc1c(Cl)c(C#N)c(Nc2cccc(F)c2)c(C#N)c1Cl`: the LD50 in series [1] stood at 56 mg/kg. For the same compound, the Activity with Rattus norvegicus [3] came to 0%.

`N#Cc1c(Cl)c(C#N)c(Nc2cccc(Cl)c2)c(C#N)c1Cl`: the LD50 in series [1] was found to be 178 mg/kg. The Activity in the series on Rattus norvegicus [3] turned out to be 0%.

Consider `Cc1cccc(Nc2c(C#N)c(Cl)c(C#N)c(Cl)c2C#N)c1C`, for which, in series [1], the LD50 was determined as 75 mg/kg. The Activity in the series on Rattus norvegicus [2] amounted to 22%.

Take `N#Cc1c(Cl)c(C#N)c(Nc2ccccc2O)c(C#N)c1Cl`: the median lethal dose (LD50) in series [1] turned out to be 24 mg/kg. Moreover, the Activity in the series on Rattus norvegicus [5] is on record as 17%.

Take `N#Cc1c(F)c(F)c(C#N)c(Cl)c1F`: in series [1], the LD50 turned out to be 40 mg/kg. Further, in the series on Rattus norvegicus [3], the Activity was found to be 86%.

In the case of `N#Cc1c(F)c(F)c(C#N)c(F)c1F`, the 50% lethal dose (LD50) in series [1] was 56 mg/kg. The Activity in the series on Rattus norvegicus [2] is on record as 54%.

For `CNC(=O)Oc1c(Cl)c(Cl)c(C#N)c(Cl)c1C#N`, the 50% lethal dose (LD50) in series [1] was 178 mg/kg. Moreover, the Activity in the series on Rattus norvegicus [6] came out at 20%.

For `N#CCCS(=O)(=O)c1c(Cl)c(Cl)c(C#N)c(Cl)c1Cl`, the median lethal dose (LD50) in series [1] was found to be 56 mg/kg. Also, in the series on Rattus norvegicus [3], the Activity is given as 5%.

On to `Cc1c(C#N)c(C)c(C#N)c(C)c1C#N`, for which, in series [1], the LD50 amounted to 40 mg/kg. Moreover, the Activity with Rattus norvegicus [2] is listed as 57%.

`Cc1ccc(Nc2c(C#N)c(Cl)c(C#N)c(Cl)c2C#N)c(C)c1`: the LD50 in series [1] was 56 mg/kg. The Activity with Rattus norvegicus [3] was 13%.

For `Cc1c(Cl)cccc1Nc1c(C#N)c(Cl)c(C#N)c(Cl)c1C#N`, in series [1], the median lethal dose (LD50) worked out at 42 mg/kg. For the same compound, the Activity in the series with Rattus norvegicus [7] was 8%.
